Assay: Toxicokinetics in miniature swine
Type: in vivo, Hanford miniature swine
Experimental: A total of 40 Hanford miniature swine (20 male and 20 female) divided into four treatment groups were used for this study. A 12-week topical application of Galnobax 20% was carried out in the miniature swine wound healing model with twice-daily dosing. Six wounds (10 cm^2 each) of partial thickness were created on the dorsal region of all animals. Four wounds of each animal received twice-daily topical doses of either the vehicle or Galnobax gel, and the remaining two sites served as untreated comparative control wounds. Each group has four male and female miniature swine for the assessments and one each for the recovery period as given in Table 1 . Safety parameters in terms of ECG, clinical pathology, wound site evaluation, and toxicokinetics were performed during the study.

[1] = Day 1, Group 2 swine, topical 400 mg Galnobax Gel, mean
[2] = Week 6, Group 2 swine, topical 400 mg Galnobax Gel BID, mean
[3] = Week 12, Group 2 swine, topical 400 mg Galnobax Gel BID, mean

CC(C)NCC(O)COc1ccc(CCC(=O)O)cc1 (centres unmarked) [Esmolol Acid, Esmolol acid] gave an AUClast [1] of 3780 ng·h/mL, a Cmax [1] of 683 ng/mL and a Tmax [1] of 2.60 h. For the same compound, the t1/2 [1] was 4.18 h, the t1/2 (Day 1, Group 2 swine, topical 400 mg Galnobax Gel, mean, listed as Esmolol acid) was “approximately 4 hr” and the AUClast [2] was 308 ng·h/mL. For the same compound, the Cmax [2] was 52.5 ng/mL, the Tmax [2] was 5.33 h and the AUC0-8 [3] was 269 ng·h/mL. The AUClast [3] was 291 ng·h/mL, the Cmax [3] was 59.7 ng/mL and the Tmax [3] was 2.09 h. For the same compound, the t1/2 [3] was 15.90 h and the “accumulation after 12 weeks of twice-daily topical application” value (miniature swine, topical Galnobax) was “no apparent accumulation”.

— article PMC9446078 (Frontiers in Endocrinology, 2022)
